Source: article PMC9967700, “Metabolism-Guided Optimization of Tryptophanol-Derived Isoindolinone p53 Activators” (Pharmaceuticals, 2023)
Where two headings read alike, the source gives them in different places.

Experiments:
[1] = Glucuronidation in alamethicin induced-HLM with NADPH and UDPGA; type: in vitro ADME, human; conditions: NADPH, UDPGA, LC-ESI(-)-HRMS/MS
Description: For the generation of glucuronidation metabolites: HLM were preincubated for 15 min with alamethicin (25 µg/mL). Incubations were then run in duplicate at 37 °C, using the following conditions: test compounds at a concentration of 25 µM (1 μL of DMSO stock solution 5 mM), HLM (1 mg/mL, 10 μL), NADPH (5 mM), MgCl2 (2 mM), UDPGA (5 mM) for a final volume of 200 μL, in 50 mM ABIC buffer pH 7.4. Control incubations were conducted in the same conditions using: (1) DMSO as negative control, in absence of the test compound; (2) heat-denatured HLM (90 °C, 15 min); and (3) in absence of UDPGA co-factor. Aliquots (50 μL) were collected at 0 and 2 h and then quenched with 50 μL of a cold 2.5 μM reserpine solution in acetonitrile. All the samples were vortexed and centrifuged for 15 min at 10,000 rpm. The supernatants were collected and stored at −20 °C until further analysis by LC-ESI-HRMS/MS.

[2] = Human plasma incubations (stability); type: in vitro ADME; conditions: 37 °C, 40 μM
Description: Human plasma incubations were performed in duplicate, at 37 °C, by standard methodology. Specifically, incubations contained 40 μM of the test compound for a final volume of 1 mL. The mixtures were incubated for a total time of 24 h, and aliquots following 0, 30, 60, 120, 180 min and 24 h and quenched with a cold solution of reserpine 0.1 mM in acetonitrile. Following centrifugation (10,000 rpm, 10 min, RT), the clear supernatants were collected and analyzed by LC-ESI(+)-MS/MS. Additional control assays were conducted using PBS pH 7.4 instead of plasma solution and using procaine as a positive control.

[3] = system: HCT116 p53−/− cells; experiment: Antiproliferative activity, sulforhodamine B (SRB) assay; type: cell-based, human; conditions: Homo sapiens, HCT-116, 48 h, 48 h treatment, read-out: HCT116 p53−/− GI50
Description: (§1) Tumor cells were cultured in RPMI-1640 with UltraGlutamine (Lonza, VWR), supplemented with 10% fetal bovine serum (FBS; Gibco, Alfagene) and maintained in a humidified incubator at 37 °C with 5% CO2. Cell lines were seeded in 96-well plates at the cells/well density of 5.0 × 10^3.

[4] = system: HCT116 p53+/+ cells; experiment: as above; type: cell-based, human; conditions: for S.I. (selectivity index): HCT116 p53−/− versus HCT116 p53+/+; for GI50: Homo sapiens, HCT-116, 48 h treatment, read-out: HCT116 p53+/+ GI50
Description: as §1

[5] = Human liver microsomes incubations: half-life and intrinsic clearance; type: in vitro ADME; conditions: for Intrinsic Clearance / clearance classification: HLM; for Intrinsic Clearance: calculated from half-life (Equation 2); for clearance classification: classification after ref 32; for half-life at 10 μM: human, liver microsomes, pH 7.4, HLM 1 mg protein/mL, NADPH, 37 °C
Description: (§2) For the generation of Phase I metabolites: tested compounds, at a 10 μM concentration (1 μL of 5 mM DMSO stock solution), were incubated with HLM (1 mg protein/mL), Vivid® regenerating system (5 μL) and NADPH (1mM) in ABIC 50 mM buffer pH 7.4, for a total incubation volume of 500 μL. Incubations were run in duplicate, at 37 °C. Aliquots were collected at 0, 5, 10, 20, 30, 40, 50, 60, 75, 90, 120, 180 min and reactions were stopped by adding and ice-cold solution of reserpine (2.5 μM) in acetonitrile. Additional aliquots were taken at 0 and 120 min and subsequently treated with L-lysine (100 µM) and sodium cyanoborohydride (10 µM) or glutathione (100 µM). Following centrifugation (10,000 rpm, 15 min, RT), the clear supernatants were collected and analyzed LC-ESI-HRMS/MS. Control incubations were conducted in the same conditions: (1) using DMSO as negative control, in absence of the test drug; (2) using heat-denatured HLM (90 °C, 15 min); (3) using nevirapine, as a positive control, instead of the tested compound; and (4) in absence of NADPH co-factor.
The in vitro depletion half-lives of tested compounds t1/2 were calculated using Equation (1), assuming that testing compounds follow a first-order kinetic trend. The “slope” was determined from linear fitting of the natural logarithm of the concentration of drug remaining plotted against time:(1) t1/2=ln2/slope
The intrinsic clearance in HLM (CLint, HLM) was calculated using Equation (2):(2) CLint HLM =ln2/ t1/2 x mL incubation/mg microsomes x 45 mg microsomes/g liver x 26 g liver/Kg b.w.

[6] = Bioactivation: S9 rat liver fraction and HLM incubations in the presence of glutathione; type: in vitro ADME, human
Description: as §2, with “Control incubations were conducted in the same conditions: (1) using DMSO as negative control, in absence of the test drug; (2) using heat-denatured HLM (90 °C, 15 min); (3) using nevirapine, as a positive control, instead of the tested compound; and (4) in absence of NADPH co-factor.” left out
Tested compounds at a 10 μM concentration (1 μL of 5 mM DMSO stock solution) were incubated with rat liver S9 fraction (2 mg protein/mL), Vivid® regenerating system (2 μL) and NADPH (1mM) in ABIC 50 mM buffer pH 7.4, for a total incubation volume of 500 μL. […] Following centrifugation (10,000 rpm, 15 min, RT) the clear supernatants were collected and analyzed LC-ESI-HRMS/MS. […]

[7] = system: HCT116 p53−/− cells; design: method as in PMID 26735173; conditions: 48 h treatment; cited from earlier work
[8] = system: HCT116 p53+/+ cells; design: method as in PMID 26735173; conditions: 48 h treatment; cited from earlier work
[9] = design: method as in PMID 26735173; conditions: cited from earlier work
[10] = In vitro reactions with bionucleophiles
Description: To a solution of compound 13d in acetonitrile (1.00 eq., 10.1 mg in 400 µL, 5.04 × 10^−2 M) reduced glutathione (4.00 eq. 25.2 mg, 82.00 µmol) dissolved in 400 µL of ABIC buffer 50 mM pH 7.4 was added. The reaction mixture was incubated for 24 h at 37 °C and monitored by LC-ESI-HRMS/MS.
To a solution of compound 13k in acetonitrile (1.00 eq., 4.3 mg in 200 µL, 3.92 × 10^−2 M) reduced glutathione (4.00 eq. 9.64 mg, 31.36 µmol) dissolved in 200 µL of ABIC buffer 50 mM pH 7.4 was added. The reaction mixture was incubated for 24 h at 37 °C and monitored by LC-ESI-HRMS/MS.
SLMP53-1_M5 (1.00 eq., 2.1 mg, dissolved in 150 µL of ACN) was added to a L-lysine (2 eq.) solution in 50 mM ABIC buffer pH 7.4. Following incubation for 24 h at 37 °C a solution of cyanoborohydride (2 eq) was added. The mixture was analyzed by LC-ESI(+)-HRMS/MS.

[11] = mean ± SEM of 3–5 independent experiments
[12] = mean ± SEM of 5 independent experiments

| SMILES | Phase II (glucuronic acid conjugate) metabolites identified [1] | stability towards plasmatic enzymes [2] | GI50 [3, 11] [µM] | S.I. (selectivity index) [4] | GI50 [4, 11] [µM] | Intrinsic Clearance ([5]; listed as SLMP53-2 (7)) [L/h/kg] | clearance classification [5] | half-life at 10 μM [5] [h] | GSH adducts identified ([6]; S9 rat liver fraction and HLM in the presence of GSH) | GI50 [7] [µM] | GI50 [8] [µM] | toxicity alerts in vivo [9] | Intrinsic Clearance [5] [L/h/kg] | reaction products upon L-lysine incubation ([10]; followed by reductive stabilization, 24 h, 37 °C) | GI50 [3, 12] [µM] | GI50 [4, 12] [µM] | GSH adducts stemming from the bioactivation of Phase I metabolites ([6]; S9 rat liver fraction incubation in the presence of GSH) | products of addition of GSH with concomitant loss of bromine ([10]; with or without enzymatic conditions (S9 rat liver incubations)) |
| --- | --- | --- | --- | --- | --- | --- | --- | --- | --- | --- | --- | --- | --- | --- | --- | --- | --- | --- |
| Cn1cc(C[C@H]2CO[C@]3(c4ccccc4)c4ccccc4C(=O)N23)c2ccccc21 [SLMP53-2] | no Phase II metabolites were identified | stable towards plasmatic enzymes for 3 h | 17.7 ± 2.3 | 2.1 | 8.4 ± 1.1 | 0.165 | low clearance | 2.45 | – | – | – | – | – | – | – | – | – | – |
| CC12OCC(Cc3c[nH]c4ccccc34)N1C(=O)c1ccccc12 (stereo not shown) [SLMP53-1] | two glucuronic acid conjugates were identified | stable towards plasmatic enzymes for 3 h | – | – | – | – | low clearance | 2.3 | Two GSH adducts were identified | 34 ± 3.5 | 15.6 ± 1.6 | not associated with toxicity alerts | 0.22 | – | – | – | – | – |
| C[C@]12OC[C@H](CC(=O)c3ccccc3NC=O)N1C(=O)c1ccccc12 [SLMP53-1_M5, N-(2-(2-((3S,9bR)-9b-methyl-5-oxo-2,3,5,9b-tetrahydrooxazolo[2,3-a]isoindol-3-yl)acetyl)phenyl)formamide] | – | – | – | – | – | – | – | – | – | – | – | – | – | no reaction products were obtained | 44 ± 1.8 | 48.8 ± 2.3 | – | – |
| O=C1c2ccccc2[C@@]2(c3ccccc3)OC[C@H](Cc3c(Br)n(Cc4ccccc4)c4ccccc34)N12 [Compound 13k, (3S, 9bR)-3-((1-benzyl-2-bromo-1H-indol-3-yl)methyl)-9b-phenyl-2,3-dihydrooxazolo[2,3-a]isoindol-5(9bH)-one] | – | – | 30.5 ± 2.1 | 3.8 | 8.09 ± 2.01 | – | low clearance | 2.45 | – | – | – | – | 0.204 | – | – | – | no adducts stemming from the bioactivation of Phase I metabolites were identified | no products compatible with the addition of GSH, and the concomitant loss of bromine, were detected |
